Reference: US20240262844A1, “PYRIDINIUM SALTS AND METHODS OF USE” (UNIVERSITY OF WYOMING, priority 2023, published 2024)
Counter-ions that a name gives are not always drawn.

Target: T1, bovine carbonic anhydrase II (29 kDa) (Bos taurus, UniProt P00921)
T1 construct: Carbonic Anhydrase Isozyme II from bovine erythrocytes; purchased Sigma Aldrich; host or cells: bovine erythrocytes
Test: Photochemical labeling of bovine carbonic anhydrase II (LC/MS, MS-MS)
Type: biochemical
Description: General Procedure B: Photochemical Irradiation of Peptides and Proteins: To a 2 mL Pyrex LC/MS vial (Thermo model #03-391-39) were sequentially added solutions containing the desired biomolecule, glutathione (GSH), pyridinium salt, and ammonium acetate (NH4OAc). The resulting solution was diluted to a final volume of 500 μL and then sparged using nitrogen for a minimum of 30 minutes prior to irradiation. The actively sparging solution was then placed in an EvoluChem™ PhotoRedOx Box photoreactor that was equipped with a Kessil, PR160 427 nm LED Lamp and was then irradiated (100% lamp intensity) for the designated time at room temperature while maintaining active sparging. The resultant reaction mixture was then analyzed directly by LC/MS. […]
Labeling of Bovine Carbonic Anhydrase II with Pyridinium Salt 2a (Bovine Carbonic Anhydrase II-2a Conjugate). […] The reaction mixture was directly analyzed by LC/MS using method A and was estimated to have proceeded with 34% conversion and a 4.5:1 mono:di labeled ratio. […]
General Trypsin Digest Protocol B: For non-cystine bridged labeled proteins, a standard trypsin digest was modified as follows. […] The digested mixture was analyzed directly by LC/MS and MS/MS using method C. […] The reduced product was analyzed by LC/MS-MS by selecting m/z=1108.4 for collision-induced dissociation (Collision energy=35 V). […]

T1 sequence (P00921 whole entry): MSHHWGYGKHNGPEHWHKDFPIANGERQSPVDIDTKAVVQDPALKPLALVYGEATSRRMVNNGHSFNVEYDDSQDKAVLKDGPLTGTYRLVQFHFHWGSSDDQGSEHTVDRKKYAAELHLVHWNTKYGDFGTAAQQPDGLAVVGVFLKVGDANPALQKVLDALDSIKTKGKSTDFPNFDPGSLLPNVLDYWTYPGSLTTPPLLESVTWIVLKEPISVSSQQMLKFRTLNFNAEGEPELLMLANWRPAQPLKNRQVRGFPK

COC(=O)N(C)[n+]1c(C)cc(-c2ccc3cc(OC)ccc3c2)cc1C [Pyridinium salt 2a, 1-((methoxycarbonyl)(methyl)amino)-4-(6-methoxynapthalen-2-yl)-2,6-dimethylpyridin-1-ium tetrafluoroborate] was tested, and the glutathionylation (10 μM carbonic anhydrase II, 200 μM pyridinium salt, 300 μM glutathione, 60 minutes) was “No glutathionylation was observed” and the “identifiable site of modification” value (digestion/MS-MS) was “Trp-243”.
